Assays:
bananas [1] = experiment: Color change of bananas after ethylene mediated ripening treatment (colorimeter); type: in vivo; conditions: banana surface color after ripening treatment (48 hours)
Method: (§1) The color change of the produce was measured using a Minolta colorimeter (Minolta Co. Ltd, Japan). The L values reported were means of 12 readings; three readings from each side of each of the bananas, and two readings per avocado. For bananas, ‘a’ was an indicator of green, and higher ‘a’ value meant less green; ‘b’ was an indicator of yellow, and higher ‘b’ value meant more yellow. For avocados, the degree of browning was expressed by the percent decrease in the L value calculated by subtracting the L value of treated and control samples measured at evaluation times from the time zero L value obtained from untreated samples measured immediately after cutting, divided by the time zero value and multiplied by 100.

avocados [2] = experiment: Color change of avocados after ethylene mediated ripening treatment (colorimeter); type: in vivo, avocado
Method: as §1

bananas [3] = experiment: Texture (tensile property, firmness) of bananas after ripening treatment; type: in vivo, banana
Method: (§2) Each measurement was repeated at least three times. […] Five replicates were measured for each measurement.
(§3) Tensile Property. […] At least five replicates were measured for each treatment.

avocados [4] = conditions: after 48 hours of treatment
Method: as §2, §3

climacteric produce = experiment: Controlled ripening of climacteric produce; type: in vivo
Description: Avacados and grocery bananas (pretreated at warehouse or retail facility) were acquired directly from local supermarket, and ‘non-gassed’ bananas were directly purchased from local produce distribution center (Coastal Sunbelt, Jessup, Md.).

[5] = avocado surface color after ripening treatment (48 hours)

C=C [ethylene]
L (bananas [1]): 66.74 ± 0.77 | c (bananas [1]): 45.80 ± 4.64 | h (bananas [1]): 92.08 ± 0.83 | a (bananas [1]; higher a = less green): −1.66 ± 0.57 | b (bananas [1]; higher b = more yellow): 45.77 ± 4.60 | skin color of avocado (avocados [2]; after treatment, in words): darkened slightly | L (avocados [2]; [5]): 30.17 ± 0.23 | a (avocados [2]; [5]): −1.31 ± 3.01 | b (avocados [2]; [5]): 13.54 ± 1.66 | c (avocados [2]; [5]): 13.60 ± 3.44 | h (avocados [2]; [5]): 95.53 ± 0.29 | Young's modulus (initial slope): change of elasticity of bananas (bananas [3]): less elastic and more viscous | avocado flesh texture (avocados [4]): softened significantly | ripening state of samples (climacteric produce; after 48 hours of treatment): fully ripened | total ripening time required (climacteric produce; versus no ethylene treatment): reduced by a half

Source: patent US20170079296A1, “Methods For Treating Plants Or Fruits” (The United States of America, as represented by the …, priority 2015, published 2017)
